Measured values reported in US11685782B2, “Methods of treating cancer using LSD1 inhibitors in combination with immunotherapy” (Children's Medical Center Corporation, priority 2017, dated 2023).

Assays:
AGO2 = test: Mass spectrometry of lysine methylation on FH-AGO2 purified from MCF-7 cells; assay type: cell-based, human; conditions: overexpressed FH-AGO2 from MCF-7 cells, mass spectrometry (FIG. 5I)
From the text: FIG. 5I is a picture of immunoblots showing purified FH-AGO2 from MCF-7 cells treated by LSD1 KD or GSK-LSD1 as determined by mass spectrometry for the identification of lysine methylation. sh-Ctrl ([…]; SEQ ID NO: 156) and sh-LSD1, GSK-LSD1(VGK(me)[…]; SEQ ID NO: 157).
To investigate whether LSD1 regulates AGO2 stability by controlling AGO2 methylation, overexpressed FH-AGO2 from MCF-7 cells with or without LSD1 inhibition were purified and used for mass spectrometry analysis. […] To validate this finding, an antibody was raised that preferentially recognized AGO2 peptides mono-methylated at K726 (K726me1) compared with un-methylated or di-methylated peptides (FIG. 5J). Furthermore, this antibody detected increased K726me1 on ectopically expressed AGO2 when LSD1 was inhibited, which can be abrogated by substituting K726 with arginine (K726R) or alanine (K726A) (FIGS. 5K and 5L). […] To gain more insights into this regulation, an in vitro demethylation assay was performed using immunoprecipitated FH-LSD1, FH-LSD1-K661A (catalytically compromised LSD1), FH-AGO2 and FH-AGO2-K726R proteins purified from mammalian cells. FH-LSD1 but not FH-LSD1-K661A decreased K726me1 level on FH-AGO2, but had no observable effects on FH-AGO2-K726R (FIGS. 5N and 5O).

MCF-7 cells = test: RT-qPCR of selected ERVs, interferons and ISGs in MCF-7 cells treated with GSK-LSD1 (compound screen); assay type: cell-based, human; conditions: GSK-LSD1 for 6 days, RT-qPCR normalized to GAPDH, relative to DMSO (FIG. 1A)
Protocol: FIG. 1A is a bar graph showing quantitative reverse transcription polymerase chain reaction (RT-qPCR) analysis of selected endogenous retroviruses (ERVs) (HERV-E, HERV-F, HERV-K, HML-2, and ERVL), IFNs (IFN-α, IFN-β and IL-28) and ISGs (ISG15 and OASL) in human MCF-7 breast cancer cells treated with or without GSK-LSD1 for 6 days. The RT-qPCR data were normalized to GAPDH and then relative to DMSO. RT-qPCR was performed in duplicates and repeated two to three times. Error bars represent the standard error of mean (SEM). *p<0.05, **p<0.01, ***p<0.001, ns, not significant, as determined by unpaired t-test.
MCF-7, T47D, B16, LLC and D4m cells were cultured in normal DMEM supplemented with 10% FBS and 1% penicillin/streptomycin in 5% CO2 incubator at 37° C. All cell lines were cultured in 5% CO2 incubator at 37° C., and passaged every 2-3 days. […]
All reagents, buffers and containers used for RNA work were RNase-free grade or treated with 0.1% v/v DEPC (Sigma-Aldrich cat #D5758) if applicable, to eliminate RNase contaminants in this section and other relevant sections. […] The obtained cDNA samples were diluted and used for real-time quantitative PCR (RT-qPCR). […]
Of note, the PCR primers detected overall transcript levels of the corresponding ERV subfamilies, which may be transcribed from multiple genomic loc. […]

Cl.Cl.c1ccc([C@@H]2C[C@H]2NC2CCNCC2)cc1 (relative stereo) [GSK-LSD1, rel-N-[(1R,2S)-2-Phenylcyclopropyl]-4-Piperidinamine hydrochloride (1:2)]
methylation of AGO2 lysine 726 (K726) (AGO2): consistently mono-methylated | up-regulation of selected ERVs, type I and type III interferons and interferon-stimulated genes (ISGs) (MCF-7 cells): significantly induce the up-regulation
